Source: patent US9572343B2, “Active compound combinations” (BAYER CROPSCIENCE AG, priority 2012, dated 2017)
Read-outs that look alike come from different tables or passages of the source.

Key:
Type in all cases: in vivo
[1] = tested on: Phakopsora pachyrhizi; assay: Phakopsora test (soybeans)/preventive; settings: for pest or weed control at 1 ppm: Table D2, application rate 1 ppm a.i.
[2] = tested on: Uromyces appendiculatus; assay: Uromyces test (beans)/preventive; settings: for pest or weed control at 2 ppm: application rate 2 ppm a.i.; for pest or weed control at 0.5 ppm: application rate 0.5 ppm a.i.
Procedure: (§1) Solvent: 24.5 parts by weight of acetone • 24.5 parts by weight of dimethylacetamide
(§2) Emulsifier: 1 part by weight of alkylaryl polyglycol ether
(§3) To produce a suitable preparation of active compound, 1 part by weight of active compound is mixed with the stated amounts of solvent and emulsifier, and the concentrate is diluted with water to the desired concentration.
To test for preventive activity, young plants are sprayed with the preparation of active compound at the stated rate of application. After the spray coating has dried on, the plants are inoculated with an aqueous spore suspension of the causal agent of bean rust (Uromyces appendiculatus) and then remain for 1 day in an incubation cabinet at approximately 20° C. and a relative atmospheric humidity of 100%.
The plants are then placed in a greenhouse at approximately 21° C. and a relative atmospheric humidity of approximately 90%.
The test is evaluated 10 days after the inoculation. 0% means an efficacy which corresponds to that of the untreated control, while an efficacy of 100% means that no disease is observed.

[3] = tested on: Pyrenophora teres; assay: Pyrenophora teres-test (barley)/preventive; settings: Table E1
Procedure: Solvent: 49 parts by weight of N,N-dimethylacetamide
as §2
To produce a suitable preparation of active compound, 1 part by weight of active compound or active compound combination is mixed with the stated amounts of solvent and emulsifier, and the concentrate is diluted with water to the desired concentration.
To test for preventive activity, young plants are sprayed with the preparation of active compound or active compound combination at the stated rate of application.
After the spray coating has been dried, the plants are sprayed with a spore suspension of Pyrenophora teres. The plants remain for 48 hours in an incubation cabinet at approximately 20° C. and a relative atmospheric humidity of approximately 100%.
The plants are placed in the greenhouse at a temperature of approximately 20° C. and a relative atmospheric humidity of approximately 80%.
The test is evaluated 8 days after the inoculation. 0% means an efficacy which corresponds to that of the untreated control, while an efficacy of 100% means that no disease is observed.

[4] = tested on: Blumeria graminis f.sp. hordei; assay: Blumeria test (barley)/preventive; settings: Table B1
Procedure: (§4) Solvent: 49 parts by weight of N,N-dimethylacetamide Emulsifier: 1 part by weight of alkylaryl polyglycol ether To produce a suitable preparation of active compound, 1 part by weight of active compound or active compound combination is mixed with the stated amounts of solvent and emulsifier, and the concentrate is diluted with water to the desired concentration. To test for preventive activity, young plants are sprayed with the preparation of active compound or active compound combination at the stated rate of application. After the spray coating has been dried, the plants are dusted with spores of Blumeria graminis f.sp. hordei.

[5] = tested on: Leptosphaeria nodorum; assay: Leptosphaeria nodorum test (wheat)/preventive; settings: Table C1
Procedure: as §4, with “sprayed” for “dusted”, “a spore suspension” for “spores”, “Leptosphaeria nodorum.” for “Blumeria graminis f.sp. hordei.”

[6] = tested on: Alternaria solani; assay: Alternaria test (tomatoes)/preventive
Procedure: as §1, §2, §3
To test for preventive activity, young plants are sprayed with the preparation of active compound at the stated rate of application. After the spray coating has dried on, the plants are inoculated with an aqueous spore suspension of Alternaria solani. The plants are then placed in an incubation cabinet at approximately 20° C. and a relative atmospheric humidity of 100%.
The test is evaluated 3 days after the inoculation. 0% means an efficacy which corresponds to that of the untreated control while an efficacy of 100% means that no disease is observed.

[7] = tested on: Venturia inaequalis; assay: Venturia test (apples)/preventive; settings: Table I1
Procedure: (§5) Solvent: 24.5 parts by weight of acetone • 24.5 parts by weight of dimethylacetamide Emulsifier: 1 part by weight of alkylaryl polyglycol ether To produce a suitable preparation of active compound, 1 part by weight of active compound is mixed with the stated amounts of solvent and emulsifier, and the concentrate is diluted with water to the desired concentration. To test for preventive activity, young plants are sprayed with the preparation of active compound at the stated rate of application.

[8] = tested on: Septoria tritici; assay: Septoria tritici-test (wheat)/preventive; settings: Table F1
Procedure: as §4, with “sprayed” for “dusted”, “a spore suspension” for “spores”, “Septoria tritici.” for “Blumeria graminis f.sp. hordei.”

[9] = tested on: Sphaerotheca fuliginea; assay: Sphaerotheca test (cucumbers)/preventive; settings: Table G1
Procedure: as §5, with “application. After the spray coating has dried on, the plants are inoculated with an aqueous spore suspension of Sphaerotheca fuliginea.” for “application.”

[10] = Uromyces appendiculatus, 240 h, Table H2, read-out: Efficacy in % found
[11] = Table A1, application rate 0.5 ppm a.i.
[12] = Table D1, application rate 0.5 ppm a.i.
[13] = Table H1, application rate 0.25 ppm a.i.
[14] = Table A2, application rate 5 ppm a.i.
[15] = Phakopsora pachyrhizi, 168 h, read-out: Efficacy in % found
[16] = Phakopsora pachyrhizi, 168 h, Table D1, application rate 0.5 ppm a.i., read-out: Efficacy in % found

## CO/C=C(/C(=O)OC)c1ccccc1COc1cccc(C(F)(F)F)n1 [3.16, picoxystrobin]
[1]; Table D1, application rate 0.25 ppm a.i.
  Efficacy in % found: 8%
[2]; Table H2, application rate 2.5 ppm a.i.
  Efficacy in % found: 65%
[3]; application rate 40 ppm a.i.
  Efficacy in % found: 71%
[4]; application rate 40 ppm a.i.
  Efficacy in % found: 50%

## CC1(C)CCC(Cc2ccc(Cl)cc2)C1(O)Cn1cncn1 (centres unmarked) [1.30, metconazole]
[2]; [10]
  pest or weed control at 2 ppm: 30%
[5]; application rate 40 ppm a.i.
  Efficacy in % found: 30%

## Cn1cc(C(=O)Nc2ccccc2-c2cc(F)c(F)c(F)c2)c(C(F)F)n1 [2.8, fluxapyroxad]
[6]; [11]
  Efficacy in % found: 58%
[1]; [12]
  Efficacy in % found: 0%
[2]; [13]
  Efficacy in % found: 0%
[3]; application rate 80 ppm a.i.
  Efficacy in % found: 57%
[4]; application rate 40 ppm a.i.
  Efficacy in % found: 30%

## CO/N=C(/C1=NOCCO1)c1ccccc1Oc1ncnc(Oc2ccccc2Cl)c1F [3.12, fluoxastrobin]
[7]; application rate 0.5 ppm a.i.
  Efficacy in % found: 30%
[2]; [10]
  pest or weed control at 0.5 ppm: 65%
[3]; application rate 20 ppm a.i.
  Efficacy in % found: 16%

## CON=C(C(=O)OC)c1ccccc1CON=C(C)c1cccc(C(F)(F)F)c1 [3.22, trifloxystrobin]
[6]; [14]
  Efficacy in % found: 45%
[7]; application rate 0.25 ppm a.i.
  Efficacy in % found: 66%
[5]; application rate 20 ppm a.i.
  Efficacy in % found: 40%
[8]; application rate 20 ppm a.i.
  Efficacy in % found: 71%

## chlorothalonil [5.4]
[6]; Table A3, application rate 20 ppm a.i.
  Efficacy in % found: 8%
[7]; application rate 20 ppm a.i.
  Efficacy in % found: 68%
[9]; application rate 20 ppm a.i.
  Efficacy in % found: 29%
[2]; Table H3, application rate 20 ppm a.i.
  Efficacy in % found: 0%
[8]; application rate 160 ppm a.i.
  Efficacy in % found: 0%

## CC(C1CC1)C(O)(Cn1cncn1)c1ccc(Cl)cc1 (centres unmarked) [1.5, cyproconazole]
[6]; [14]
  Efficacy in % found: 23%
[9]; application rate 1.25 ppm a.i.
  Efficacy in % found: 52%
[2]; [10]
  pest or weed control at 0.5 ppm: 50%
[8]; application rate 80 ppm a.i.
  Efficacy in % found: 0%

## O=C(NCCc1ncc(C(F)(F)F)cc1Cl)c1ccccc1C(F)(F)F [2.6, fluopyram]
[6]; Table A1, application rate 2 ppm a.i.
  Efficacy in % found: 34%
[1]; Phakopsora pachyrhizi, 168 h, Table D1, application rate 2 ppm a.i., read-out: Efficacy in % found
  pest or weed control at 2 ppm: 0%
[2]; Uromyces appendiculatus, 240 h, Table H1, application rate 1 ppm a.i., read-out: Efficacy in % found
  pest or weed control at 1 ppm: 15%
[3]; application rate 40 ppm a.i.
  Efficacy in % found: 57%
[4]; application rate 40 ppm a.i.
  Efficacy in % found: 0%

## OC(Cc1ccccc1Cl)(Cn1nc[nH]c1=S)C1(Cl)CC1 (centres unmarked) [1.41, prothioconazole]
[1]; [15]
  pest or weed control at 1 ppm: 60%
[2]; [10]
  pest or weed control at 2 ppm: 30%
[5]; application rate 80 ppm a.i.
  Efficacy in % found: 30%

## COC(=O)N(OC)c1ccccc1COc1ccn(-c2ccc(Cl)cc2)n1 [3.17, pyraclostrobin]
[6]; Table A1, application rate 1 ppm a.i.
  Efficacy in % found: 28%
[7]; application rate 1 ppm a.i.
  Efficacy in % found: 23%
[1]; Phakopsora pachyrhizi, 168 h, Table D1, application rate 0.25 ppm a.i., read-out: Efficacy in % found
  pest or weed control at 0.25 ppm: 0%
[5]; application rate 20 ppm a.i.
  Efficacy in % found: 50%
[8]; application rate 20 ppm a.i.
  Efficacy in % found: 0%

## CC(C)c1ccc(Cl)cc1CN(C(=O)c1c(C(F)F)nn(C)c1F)C1CC1 [15.151, N-(5-chloro-2-isopropylbenzyl)-N-cyclopropyl-3-(difluoromethyl)-5-fluoro-1-methyl-1H-pyrazole-4-carboxamide]
[1]; [16]
  pest or weed control at 0.5 ppm: 0%
[3]; application rate 20 ppm a.i.
  Efficacy in % found: 86%
[4]; application rate 20 ppm a.i.
  Efficacy in % found: 20%

## CC1CC(C)(C)c2cccc(NC(=O)c3cn(C)nc3C(F)F)c21 (centres unmarked) [2.32, 3-(difluoromethyl)-1-methyl-N-(1,1,3-trimethyl-2,3-dihydro-1H-inden-4-yl)-1H-pyrazole-4-carboxamide]
[6]; [11]
  Efficacy in % found: 18%
[7]; application rate 1 ppm a.i.
  Efficacy in % found: 39%
[1]; [15]
  pest or weed control at 0.5 ppm: 15%
[2]; Uromyces appendiculatus, 240 h, read-out: Efficacy in % found
  pest or weed control at 0.25 ppm: 75%
[3]; application rate 80 ppm a.i.
  Efficacy in % found: 0%
[4]; application rate 80 ppm a.i.
  Efficacy in % found: 20%

## Cn1cc(C(=O)Nc2cccc3c2[C@@H]2CC[C@H]3C2=C(Cl)Cl)c(C(F)F)n1 (racemic) [2.29, benzovindiflupyr]
[6]; [11]
  Efficacy in % found: 40%
[1]; [12]
  Efficacy in % found: 8%
[3]; application rate 40 ppm a.i.
  Efficacy in % found: 0%
[4]; application rate 40 ppm a.i.
  Efficacy in % found: 0%

## CC(C)CC(C)c1sccc1NC(=O)c1cn(C)nc1C(F)(F)F (centres unmarked) [2.21, penthiopyrad]
[6]; [11]
  Efficacy in % found: 27%
[1]; [16]
  pest or weed control at 0.5 ppm: 0%
[2]; Uromyces appendiculatus, 240 h, Table H1, application rate 0.25 ppm a.i., read-out: Efficacy in % found
  pest or weed control at 0.25 ppm: 30%
[4]; application rate 80 ppm a.i.
  Efficacy in % found: 20%

## CC(C)(C)C(O)(CCc1ccc(Cl)cc1)Cn1cncn1 (centres unmarked) [1.47, tebuconazole]
[1]; [15]
  pest or weed control at 1 ppm: 50%
[8]; application rate 80 ppm a.i.
  Efficacy in % found: 14%

## Cn1cc(C(=O)Nc2ccc(F)cc2-c2ccc(Cl)c(Cl)c2)c(C(F)F)n1 [2.1, bixafen]
[6]; [11]
  Efficacy in % found: 43%
[7]; application rate 1 ppm a.i.
  Efficacy in % found: 36%
[1]; [12]
  Efficacy in % found: 0%
[2]; [13]
  Efficacy in % found: 30%
[3]; application rate 80 ppm a.i.
  Efficacy in % found: 86%

## CO/C=C(/C(=O)OC)c1ccccc1Oc1cc(Oc2ccccc2C#N)ncn1 [3.3, azoxystrobin]
[6]; [14]
  Efficacy in % found: 35%
[7]; application rate 0.5 ppm a.i.
  Efficacy in % found: 88%
[1]; Table D3, application rate 0.5 ppm a.i.
  Efficacy in % found: 68%
[3]; application rate 20 ppm a.i.
  Efficacy in % found: 57%
